Laboratory results: US9434745B2, “7-oxo-thiazolopyridine carbonic acid derivatives and their use in the treatment, amelioration or prevention of a viral disease” (Savira Pharmaceuticals GmbH, priority 2012, dated 2016)

Tested on: not given
Experiment: not given
Settings: not given

First: O=C(O)Cc1c[nH]c2nc(Nc3ccccc3)nn2c1=O
Second: CCOC(=O)Cc1c[nH]c2nc(Nc3ccccc3)nn2c1=O
The melting point of the first is higher: 279 to 281 °C for the first, 255 to 257 °C for the second.

First: O=C(O)c1cn(CCc2ccccc2)c2cc(C3CC3)nn2c1=O
Second: CC(C)c1cc2n(Cc3ccccc3)cc(C(=O)O)c(=O)n2n1
The melting point of the first is higher: 185 to 190 °C for the first, 180 to 185 °C for the second.

First: CCOC(=O)c1c[nH]c2nc(NCc3ccc(Br)cc3)nn2c1=O
Second: O=C(O)c1c[nH]c2nc(NCc3cccc4ccccc34)nn2c1=O
The melting point of the first is higher: 286 to 287 °C for the first, 245 to 250 °C for the second.

First: CCOC(=O)Cc1c[nH]c2cc(C3CC3)nn2c1=O
Second: CCOC(=O)c1c[nH]c2cc(C(=O)NCc3ccccc3)nn2c1=O
The melting point of the first is lower: 280 to 283 °C for the first, 290 to 292 °C for the second.

`O=C(O)Cc1c[nH]c2cc(C3CC3)nn2c1=O` showed a melting point greater than 300 °C.
For `CCOC(=O)c1c[nH]c2cc(C(=O)NCCc3ccc(Cl)cc3)nn2c1=O`, the melting point was greater than 300 °C.

Target: T1, influenza A virus (IAV) PA-Nter fragment (amino acids 1-209) (Influenza A virus, UniProt P31343)
T1 construct: PA-Nter fragment (amino acids 1-209); made in house
Experiment: FRET endonuclease activity assay
Format: biochemical
Settings: @ 1 μM; read-out: FRET % reduction of v0

Point of comparison: `CCOC(=O)c1cn(C(c2ccccc2)c2ccccc2)c2sc(NS(=O)(=O)c3ccc(OC)cc3)nc2c1=O`, inhibition at 1 µM 25%. Against it:
- CCOC(=O)c1cn(Cc2ccccc2-c2ccccc2)c2sc(NS(=O)(=O)c3ccc(Cl)cc3)nc2c1=O — lower, 6.2%
- CCOC(=O)c1ccc(S(=O)(=O)Nc2nc3c(=O)c(C(=O)OCC)cn(Cc4ccccc4-c4ccccc4)c3s2)cc1 — lower, 8.1%
- CCOC(=O)c1cn(C(c2ccccc2)c2ccccc2)c2sc(NS(=O)(=O)c3ccc(Cl)cc3F)nc2c1=O — lower, 5.6%
- O=C(O)c1cn(C(c2ccccc2)c2ccccc2)c2sc(NS(=O)(=O)c3ccc(Cl)cc3F)nc2c1=O — lower, 2%
- COc1ccc(S(=O)(=O)Nc2nc3c(=O)c(C(=O)O)cn(C(c4ccccc4)c4ccccc4)c3s2)cc1 — lower, 7.8%

Same assay, conditions: @ 5 μM; read-out: FRET % reduction of v0

Point of comparison: `O=C(O)c1c[nH]c2ncnn2c1=O`, inhibition at 5 µM 26%. Against it:
- CC(C)c1cc2n(CCCc3ccccc3)cc(C(=O)O)c(=O)n2n1 [drawing 215] — lower, 23%

Same assay, conditions: @ 10 μM; read-out: FRET % reduction of v0

Point of comparison: `COc1ccc(CNc2nc3c(=O)c(C(=O)O)cn(C(c4ccccc4)c4ccccc4)c3s2)cc1`, inhibition at 10 µM 21.5%. Against it:
- O=C(O)c1cn(Cc2ccccc2-c2ccccc2)c2scnc2c1=O — higher, 64%
- Nc1cc2n(Cc3ccccc3-c3ccccc3)cc(C(=O)O)c(=O)n2n1 — higher, 38%

Same assay, conditions: @ 25 μM; read-out: FRET % reduction of v0

Point of comparison: `CC(C)c1cc2n(CCCc3ccccc3)cc(C(=O)O)c(=O)n2n1` [drawing 222], inhibition at 25 µM 22%. Against it:
- O=C(O)c1c[nH]c2cc(C3CCCC3)nn2c1=O — higher, 41%
- CS(=O)(=O)n1cc(C(=O)O)c(=O)n2nc(N)cc12 — higher, 31%
- Nc1cc2n(S(=O)(=O)Cc3ccccc3)cc(C(=O)O)c(=O)n2n1 — higher, 50%
- O=C(O)c1cn(CCc2ccccc2)c2cc(C3CCCC3)nn2c1=O [drawing 219] — higher, 42%
- Nc1cc2n(C(=O)C3(c4ccccc4)CCCC3)cc(C(=O)O)c(=O)n2n1 [drawing 220] — lower, 20%
- CCOC(=O)c1cn(CCc2ccc(O)cc2)c2cc(C3CC3)nn2c1=O [drawing 223] — the same, 22%
- O=C(O)c1cn(CCc2cccc(Cl)c2)c2cc(C3CC3)nn2c1=O [drawing 224] — higher, 30%
- O=C(O)c1cn(CCc2cccc(C(F)(F)F)c2)c2cc(C3CC3)nn2c1=O [drawing 225] — higher, 32%
- O=C(O)c1cn(CCc2ccc(O)cc2)c2cc(C3CC3)nn2c1=O [drawing 227] — higher, 27%

Same assay, conditions: @ 50 μM; read-out: FRET % reduction of v0

Point of comparison: `Nc1cc2n(Cc3ccccc3)cc(C(=O)O)c(=O)n2n1`, inhibition at 50 µM 35%. Against it:
- O=C(O)c1cn(Cc2ccccc2-c2ccccc2)c2ccnn2c1=O — lower, 29%

Same assay, conditions: from initial reaction velocities (v0) of RNA substrate cleavage

Point of comparison: `Nc1cc2[nH]cc(C(=O)O)c(=O)n2n1`, IC50 10 µM. Against it:
- O=C(O)c1cn(Cc2ccccc2-c2ccccc2)c2sc(NS(=O)(=O)c3ccccc3)nc2c1=O — 1.5-fold lower, 6.5 µM
- O=C(O)c1cn(Cc2ccccc2-c2ccccc2)c2sc(NCc3ccccc3)nc2c1=O — 3.1-fold lower, 3.2 µM
- CNc1nc2c(=O)c(C(=O)O)cn(Cc3ccccc3-c3ccccc3)c2s1 — 3.6-fold lower, 2.8 µM
- O=C(O)c1cn(Cc2ccccc2-c2ccccc2)c2sc(NC3CC3)nc2c1=O — 4-fold lower, 2.5 µM
- CC(C)Nc1nc2c(=O)c(C(=O)O)cn(Cc3ccccc3-c3ccccc3)c2s1 — within 1.5-fold, 14 µM
- COCCNc1nc2c(=O)c(C(=O)O)cn(Cc3ccccc3-c3ccccc3)c2s1 — within 1.5-fold, 9 µM
- O=C(O)c1cn(Cc2ccccc2-c2ccccc2)c2sc(N3CCOCC3)nc2c1=O — 13-fold lower, 0.78 µM
- O=C(O)c1cn(Cc2ccccc2-c2ccccc2)c2sc(NS(=O)(=O)Cc3ccccc3)nc2c1=O — within 1.5-fold, 7.3 µM
- O=C(O)c1cn(Cc2ccccc2-c2ccccc2)c2sc(NS(=O)(=O)c3cccc(F)c3)nc2c1=O — within 1.5-fold, 6.7 µM
- CS(=O)(=O)Nc1nc2c(=O)c(C(=O)O)cn(Cc3ccccc3-c3ccccc3)c2s1 — within 1.5-fold, 8.1 µM
- O=C(O)c1cn(Cc2ccccc2-c2ccccc2)c2sc(NCc3ccc(Cl)cc3)nc2c1=O — 4.3-fold lower, 2.3 µM
- COc1ccc(CNc2nc3c(=O)c(C(=O)O)cn(Cc4ccccc4-c4ccccc4)c3s2)cc1 — 3.4-fold lower, 2.9 µM
- O=C(O)c1cn(Cc2ccccc2-c2ccccc2)c2sc(NCc3cccc(Cl)c3)nc2c1=O — 1.9-fold lower, 5.2 µM
- CC(Nc1nc2c(=O)c(C(=O)O)cn(Cc3ccccc3-c3ccccc3)c2s1)c1ccccc1 (stereo not drawn) — 1.7-fold lower, 5.8 µM
- O=C(O)c1cn(Cc2ccccc2-c2ccccc2)c2sc(O)nc2c1=O — 62-fold lower, 0.16 µM
- COc1ccc(S(=O)(=O)Nc2nc3c(=O)c(C(=O)O)cn(Cc4ccccc4-c4ccccc4)c3s2)cc1 — 3.7-fold lower, 2.7 µM
- O=C(O)c1cn(Cc2ccccc2-c2ccccc2)c2sc(NS(=O)(=O)c3ccc(Cl)cc3F)nc2c1=O — 1.8-fold lower, 5.7 µM
- CCOC(=O)c1cn(Cc2ccccc2-c2ccccc2)c2sc(NCc3c(Cl)cccc3Cl)nc2c1=O — 1.6-fold lower, 6.3 µM
- O=C(O)c1cn(C(c2ccccc2)c2ccccc2)c2sc(O)nc2c1=O — 13-fold lower, 0.78 µM
- COc1ccc(CNc2nc3c(=O)c(C(=O)O)cn(Cc4ccc(Cl)cc4-c4ccccc4)c3s2)cc1 — 2.6-fold lower, 3.8 µM
- O=C(O)c1cn(Cc2ccc(Cl)cc2-c2ccccc2)c2sc(O)nc2c1=O — 11-fold lower, 0.87 µM
- O=C(O)c1cn(Cc2ccccc2-c2ccccc2)c2sc(NS(=O)(=O)Cc3ccc(Cl)cc3Cl)nc2c1=O — within 1.5-fold, 7 µM
- N#Cc1ccc(S(=O)(=O)Nc2nc3c(=O)c(C(=O)O)cn(Cc4ccccc4-c4ccc(Cl)cc4)c3s2)cc1 — 4-fold lower, 2.5 µM
- COc1ccc(S(=O)(=O)Nc2nc3c(=O)c(C(=O)O)cn(Cc4ccccc4-c4ccc(Cl)cc4)c3s2)cc1 — within 1.5-fold, 7.2 µM
- O=CNc1nc2c(=O)c(C(=O)O)cn(Cc3ccccc3-c3ccccc3)c2s1 — 2.1-fold lower, 4.7 µM
- COc1ccc(CNc2nc3c(=O)c(C(=O)O)cn(Cc4ccccc4-c4cc(C)ccc4C)c3s2)cc1 — 4.8-fold lower, 2.1 µM
- Nc1nc2c(=O)c(C(=O)O)cn(Cc3ccccc3-c3ccccc3)c2s1 — 11-fold lower, 0.94 µM
- Cc1ccc(C)c(-c2ccccc2Cn2cc(C(=O)O)c(=O)c3nc(O)sc32)c1 — 40-fold lower, 0.25 µM
- O=C(O)c1c[nH]c2ccnn2c1=O — 5.8-fold higher, 58 µM
- CC(C)c1cc2[nH]cc(C(=O)O)c(=O)n2n1 — 3.5-fold higher, 35 µM
- O=c1cc[nH]c2nc(NS(=O)(=O)Cc3ccccc3)nn12 — 3.4-fold higher, 34 µM
- Nc1cc2n(S(=O)(=O)c3ccccc3)cc(C(=O)O)c(=O)n2n1 — 7.1-fold higher, 71 µM
- O=C(O)c1c[nH]c2nc(NCc3ccccc3)nn2c1=O [drawing 216] — 5-fold higher, 50 µM
- O=C(O)c1cn(CCc2cccc(F)c2)c2cc(C3CC3)nn2c1=O [drawing 226] — 6.2-fold higher, 62 µM
- COc1ccc(CCn2cc(C(=O)O)c(=O)n3nc(C4CC4)cc23)cc1 [drawing 228] — 6.9-fold higher, 69 µM
